From a melting point compilation (Tetko et al.; mined from patent text by program, amines drawn as free bases though some values may be those of a salt)
Residues, ends and D or L forms follow the SMILES beside them.

Compound	melting point
CCCN(CCC)C(=O)c1cc(C(=O)N[C@@H](Cc2cc(F)cc(F)c2)[C@H](O)CNCc2cccc(CC)c2)cc(-c2ncco2)c1	65 to 67 °C
NC(=O)[C@H]1CCCN1C(c1ccccc1)(c1ccccc1)c1ccccc1	162 °C
O=C(O)Cc1ccc2nc(Nc3ccccc3)oc2c1	222 to 223 °C
c1ccc(C(c2ccc3[nH]cnc3c2)n2ccnc2)cc1 (stereo not drawn)	186 °C
CC(C)(C)c1ccc(SC(CCl)S(=O)(=O)c2ccc(Cl)cc2)cc1 (stereo not drawn)	52 to 68 °C
Cc1cc(S(=O)(=O)N2c3ccccc3-c3ccc(F)cc3C2C)ccc1O (stereo not drawn)	196 °C
O=S(=O)(c1ccccc1)c1ncc(C(F)(F)F)cc1F	82 to 83 °C
CCCCCCCCOC(=O)n1c(-c2cscn2)nc2ccccc21	66 to 67.5 °C
O=C1CCCc2c(-c3ccncc3)sc(-c3ccncc3)c21	157 to 160 °C
Cn1ncnc1COc1nc2c(-c3ccc(F)cc3)nncn2c1-c1ccccc1	130 °C
CC1(c2ccccc2)Cc2c3c(c(Cl)c(Cl)c2C1=O)OC(C(=O)O)C3 (stereo not drawn)	188 °C
N#Cc1ccc(Nc2cc(Cc3c(Cl)cccc3Cl)nc(NCCCN3CCCC3=O)n2)cc1	104 to 114 °C
CC(C)C[C@H](N)C(=O)NCCCCNC(=O)OCc1ccccc1	137 to 139 °C
O=C(C=Cc1c(Cl)cccc1Cl)N1CCc2c([nH]c3ccccc23)C1c1ccc2c(c1)OCO2 (stereo not drawn)	118 to 120 °C
COc1ccc2cc(C(=O)CNC(=O)c3cn(C)c4ccccc34)ccc2c1	177 to 180 °C
Oc1nc2cc(Cl)cc(Cl)c2c(O)c1O	270 to 273 °C
CCc1cccc(CC(=O)O)c1OCCn1cc(CCOc2ncc(C(F)(F)F)cc2Cl)c(OC(C)C)n1	76.5 to 77.5 °C
Cc1ccc(-c2ccc3c(c2)C=C(C(=O)Nc2ccc(CN(CCO)CCO)cc2)CC3)cc1	150 to 151 °C
CS(=O)(=O)N1CCC(CO)CC1	96 to 97 °C
CC(C(N)=O)c1ccc2c(c1)CCc1ccccc1S2 (stereo not drawn)	135 to 136 °C
O=C(O)CCC(=O)Nc1ccc(Nc2ccccc2)cc1	175 to 176 °C

Compound	melting point
Cc1cc2c(cc1Cl)C=C(C(=O)O)C(C(F)(F)F)O2 (stereo not drawn)	208 to 209 °C
CCCCP(=O)(C(=O)c1c(OC)cccc1OC)C(=O)c1c(OC)cccc1OC	151 to 152 °C
COc1ccc(-n2cnnc2SC)cc1	172 °C
Cc1c(C(=O)N(CC(=O)O)c2ccc(OCC(C)(C)C)c(C#N)c2)cnn1-c1ccc(F)cc1	105 to 110 °C
CC(=O)c1cc(C)cc(Br)c1O	81 to 82 °C
CCCCCCCCCCCCCCCCCCS(=O)(=O)Nc1cc(C(=O)Nc2ccccc2)ccc1OC	154 to 156 °C
CNC(=S)NCCCSc1nc(C)co1	73 to 74 °C
CC(=O)COc1ccc(Oc2ccc(F)cc2)cc1	56 to 57 °C
OC1(c2ccccc2)CCN(CCc2c[nH]c3ccccc23)CC1	133 to 137 °C
Fc1ccc(Nc2nc3ccccc3o2)cc1C(F)(F)F	190 to 191 °C
O=C(O)c1cc(OCCCOc2ccc(O)cc2)cc(OCCCOc2ccc(O)cc2)c1	160 to 162 °C
N=C(NS(=O)(=O)C=Cc1ccc([N+](=O)[O-])cc1)c1ccc2ccccc2c1	180 to 182 °C
CN(NC(=O)c1ccccc1CO)C(=S)Nc1cccc(F)c1	136 to 137 °C
NC(=O)CCC(N)C(=O)NCC(=O)NCC(=O)NC(CO)C(=O)NC(CC(N)=O)C(=O)NC(Cc1ccccc1)C(N)=O (stereo not drawn) (H-QGGSNF-NH2; configuration not given here)	202 to 204 °C
O=S(=O)(O)COc1ccc(Cl)cc1Br	> 315 °C
CC(=O)C(=CS(=O)(=O)NC(C)C)c1cccc([N+](=O)[O-])c1	153 to 157 °C
O=C1OCC(CNC2CCCCC2)C1(c1ccccc1)c1ccccc1 (stereo not drawn)	129 to 131 °C
CC(=O)Oc1c(C2(OC(C)=O)C(=O)c3ccccc3C2=O)ccc(Cl)c1Cl	129 to 136 °C
CCC(=O)OC1(C(=O)COC(C)=O)CCC2C3CC(C)C4=CC(=O)C=CC4(C)C3C(O)CC21C (stereo not drawn)	138 °C
Nc1ccc(C(=O)N2Cc3ccccc3Cc3ccccc32)c(Cl)c1	158 to 161 °C
O=C1C2CCCC2=Nc2ccccc2N1Cc1ccc([N+](=O)[O-])cc1 (stereo not drawn)	185 to 188 °C

Compound	melting point
CC(C)NC(=O)Nc1c(C(=O)c2ccccc2)[nH]c2cc(Cl)ccc12	265 to 266 °C
CCCCCCCCCCCCS(=O)(=O)NN(C(=O)c1ccccc1)c1cc(Cl)c(C)cc1O	124 to 125 °C
CCc1c(CCNC(=O)CCCC(=O)NCCc2ccc(OC)c(OC)c2CC)ccc(OC)c1OC	171 to 173 °C
Cn1c(C(F)(F)F)nn(-c2ccccc2[N+](=O)[O-])c1=O	83 °C
Fc1cc(F)cc(N2c3ccccc3Sc3ccccc32)c1	111 to 115 °C
CCc1nc(-c2ccc(OCCn3ccnc3)cc2)no1	81 to 82 °C
O=C1c2ccccc2C(=O)N1Cc1ncc(C(F)(F)F)cc1Cl	145 to 146 °C
Cc1ccc(C(=O)C2=C(O)C(=O)N(c3ccc(C)nn3)C2c2cccc(OC(C)C)c2)cc1 (stereo not drawn)	243 to 245 °C
Nc1ccc(/C=C/C(=O)CC(=O)/C=C/c2ccc(O)cc2)cc1	212 to 217 °C
C[C@H]([C@](O)(Cn1cncn1)c1ccc(F)cc1F)S(=O)(=O)CC(N)=O	184 to 185 °C
O=Cc1cccc(OCc2ccccc2)c1Br	125 to 126 °C
O=c1ccc2cc(OCc3cn(-c4ccccc4Cl)nn3)ccc2o1	164 to 166 °C
O=C1C2Cc3cc4ccccc4n3CC2CN1Cc1ccccc1 (stereo not drawn)	121 to 123 °C
CCNc1nc2cc(COc3cccc(C=O)c3)ccc2o1	85 to 90 °C
CC(O)(CCCC(F)(F)C(F)(F)C(F)(F)C(F)(F)C(F)(F)C(F)(F)F)CCCC(F)(F)C(F)(F)C(F)(F)C(F)(F)C(F)(F)C(F)(F)F	46 to 47 °C
Cc1cncc(-c2ccc(OC3SCC(O)C(O)C3O)cn2)c1 (stereo not drawn)	165 to 166 °C
O=[N+]([O-])c1cnn(-c2c(Cl)cc(C(F)(F)F)cc2Cl)c1Br	96 °C
CCOC(=O)Cc1[nH]c(C(=O)c2ccccc2)c(C)c1C(=O)OCC	152 to 154 °C
C[C@@H](O)[C@H]1C(=O)N([Si](C)(C)C(C)(C)C)[C@@H]1[C@@H]1COC(C)(C)O1	80 to 90 °C
CNc1ccc2c(c1)C(c1ccccc1F)=NCc1cnc(C)n1-2	255 to 259 °C
N=C1CN(c2ccccc2)C(=N)O1	117 to 119 °C

Next, values leading:

melting point	Compound
189 to 193 °C	CCC1(C2CCCC2)Cc2cc(OCCCC(=O)O)c(Cl)c(Cl)c2C1=O (stereo not drawn)
99 °C	COc1ccccc1-c1n[nH]c2ccccc12
252 to 255 °C	COc1ccc(C(=O)Cc2c(Cl)cncc2Cl)c2c(CC(=O)Nc3cccnc3)coc12
181 to 182 °C	COC(=O)c1ccccc1S(=O)(=O)NC(=O)Nc1cc(C)cc(C)n1
184 to 186 °C	COc1ccc(C(=NO)c2ccccc2F)c(O)c1Cl
118 to 119 °C	COc1cc2c(cc1OC)C(CNC=O)c1ccccc1CC2 (stereo not drawn)
158 to 160 °C	COc1cc2c(cc1OC)/C(=C\c1ccc(OCC(=O)OC(C)(C)C)cc1)C(=O)N2
182 to 184 °C	c1cc(CN2CCOCC2)cc(-n2cnc3cc(-c4ccoc4)cnc32)c1
184 to 185 °C	CCOC(=O)c1cc2ccc(C)c(NS(=O)(=O)c3cccs3)c2[nH]1
146 to 147 °C	CC(=O)N1CCC(=O)C(C(c2ccc(F)cc2)c2ccc(F)cc2)C1 (stereo not drawn)
153 to 155 °C	CC(=O)NC1=C(N2CCN(Cc3ccccc3)CC2)C(=O)c2ccccc2C1=O
153 to 155 °C	CCOC(=O)CN1C(=O)SC(Cc2ccc(N3CCC(NCC(O)c4ccc(O)c(NS(C)(=O)=O)c4)CC3)cc2)C1=O (stereo not drawn)
304 to 306 °C	O=CNc1nc2c(s1)-c1nc(-c3ccccc3)ncc1CC2
167 to 171 °C	Nc1ccc(S(=O)(=O)Nc2ccn(C3CCCC3)c(=O)n2)cc1
133 to 135 °C	CCCC(=O)Nc1ccc2oc3c(c2c1)CCCC3
194 to 196 °C	CCn1cc(C(=O)NCc2ccc(Cl)cc2)c(=O)c2cc(CN3CCOCC3)sc21
310 to 313 °C	O=C(Cc1ccccc1)N1CCc2[nH]c(=O)n3nc(-c4ccccc4F)nc3c2C1
139 to 140 °C	COCC(=O)Nc1nc2ccc(F)cc2s1

melting point	Compound
262 to 263 °C	CCOc1c(OC)cc(C(=O)O)c(-c2c(C(=O)O)cc(OC)c3c2OCO3)c1OCC
162 °C	Cc1cc(OC(F)(F)F)cc2sc(N)nc12
242 to 244 °C	CS(=O)(=O)c1ccc(-c2cc(Br)c3cnc(Nc4ccc(N5CCOCC5)cc4)nn23)cc1
268 to 269 °C	COc1ccc(C2(C3CCCCC3=O)CCC(=O)CC2)c2c1OCCO2 (stereo not drawn)
297 to 299 °C	COc1cc(OC)c2c(=O)[nH]c(-c3cc(C)c(O)c(C)c3)nc2n1
188 to 191 °C	Cc1ccc(C(=O)c2cccc3c2CCC3C(N)=O)cc1 (stereo not drawn)
254 to 256 °C	COCCNC(=O)c1cc2c(nc(C)n2C)c2c1CCC(c1ccccc1)O2 (stereo not drawn)
138 to 140 °C	O=C(O)COCCCCC1CCCN1c1cnc(-c2ccccc2)c(-c2ccccc2)n1 (stereo not drawn)
130 °C	O=C1c2ccccc2CS(=O)(=O)N1CCC(c1ccccc1)N1CCOCC1 (stereo not drawn)
198 to 200 °C	COC(=O)NCCSc1cccc2nccn12
263 to 264 °C	CCOC(=O)c1ncn2c1CNC(=O)c1sccc1-2
217 to 220 °C	COc1ccc(C2CCOCC2)c2sc(NC(=O)N3CCOCC3)nc12
100 to 101 °C	CCOC(=O)C1=CCCCC1S(=O)(=O)Nn1cccc1C (stereo not drawn)
255 to 259 °C	CN(Cc1ccc(NC(=O)C2=Cc3cc(-c4ccc(N5CCOCC5)cc4)ccc3SCC2)cc1)C1CCOCC1
268 to 269 °C	Cc1[nH]n(C2CCCO2)c2nc(-c3ccncc3)nc(=O)c1-2 (stereo not drawn)
58 to 60 °C	Cc1ccc(NCC2CCN(C(C)C)CC2)c(C(=O)Nc2ccc(F)cn2)c1
195 to 198 °C	CCCC(=O)Nc1cccc(-c2ccc3nnc(C)n3n2)c1
